The source of these data is patent US7217821B2, “Photoprotective cosmetic compositions comprising para-aminobenzalmalonate-substituted s-triazine compounds” (L'Oreal, priority 2003, dated 2007).

Values joined by “and” are separate entries in the source; they are usually repeats but may differ in a detail not shown here. Identical values can stand only once.

Data set [1] can be described thus: Photostability of a film of oily solution under an Oriel sun simulator, quantified by HPLC. Format: physicochemical. The following applies: 5% by weight in Miglyol 812 oil; about 1 mg/cm^2 film; irradiated one hour, UVA=14.2 mW/cm^2, UVB=0.41 mW/cm^2; individual tests. On the procedure:
Compared photostabilities between a compound of the prior art and the compound according to the invention of Example 1:
The two products were dissolved at 5% by weight in Miglyol 812 oil. About 10 mg of oily solution are spread over 10 cm^2 onto the surface of a frosted-glass hollow disc; the amount is determined by weighing.
The films of oily solutions are irradiated for one hour using an Oriel sun simulator (UVA=14.2 mW/cm^2; UVB=0.41 mW/cm^2), and then extracted with 10 ml of ethanol containing 10% isopropanol and treated with ultrasound for 5 minutes. The quantifications of the products are performed by HPLC of the extracts.
HPLC conditions: column: UP5WOD-25QS, 250*4.6 mm, 5 μm, Interchrom; eluent: methanol (Comparative Example 1) and 96% methanol+4% water (Example 1); flow rate: 1 ml/minute; injected volume: 10 μl; detection: diode array; rt (minutes): 5.2 (Comparative Example 1) and 14.9 (Example 1).
The degrees of loss are determined by comparison of the amounts of product present in the irradiated samples and in the non-irradiated controls prepared simultaneously and treated in the same manner (average of 3 samples; S=surface area/mg solution): % loss=100*(S0-Sirr)/S0

A short description of data set [2]: UV absorption in ethanol. The class given is physicochemical.

As to `CC(C)(C)COC(=O)C(=Cc1ccc(Nc2nc(Nc3ccc(C=C(C(=O)OCC(C)(C)C)C(=O)OCC(C)(C)C)cc3)nc(Nc3ccc(C=C(C(=O)OCC(C)(C)C)C(=O)OCC(C)(C)C)cc3)n2)cc1)C(=O)OCC(C)(C)C` [Example 1, 2,4,6-tris(dineopentyl 4′-aminobenzalmalonate)-s-triazine], the “% disappearance” value in data set [1] is 3% and 5% and 4%. In addition, in data set [2], the “UV E1%” value is 956, the UV εmax was found to be 110000 M⁻¹ cm⁻¹ and the “UV λmax” value is listed as 356 nm.

For `CC(C)CC(C)OC(=O)C(=Cc1ccc(Nc2nc(Nc3ccc(C=C(C(=O)OC(C)CC(C)C)C(=O)OC(C)CC(C)C)cc3)nc(Nc3ccc(C=C(C(=O)OC(C)CC(C)C)C(=O)OC(C)CC(C)C)cc3)n2)cc1)C(=O)OC(C)CC(C)C` (centres unmarked) [Example 2, 2,4,6-tris(bis(1,3-dimethylbutyl) 4′-aminobenzalmalonate)-s-triazine], in data set [2], the “UV E1%” value is 922, the UV εmax stood at 111000 M⁻¹ cm⁻¹ and the “UV λmax” value is listed as 353 nm.

With `CC(C)COC(=O)C(=Cc1ccc(Nc2nc(Nc3ccc(C=C(C(=O)OCC(C)C)C(=O)OCC(C)C)cc3)nc(Nc3ccc(C=C(C(=O)OCC(C)C)C(=O)OCC(C)C)cc3)n2)cc1)C(=O)OCC(C)C` [Compound (prior art), 2,4,6-tris(Diisobutyl 4′-aminobenzalmalonate)-s-triazine, reference compound], the “% disappearance” value in data set [1] is 11% and 10% and 9%.
